According to ChEMBL document CHEMBL1201862, “PubChem BioAssay data set” (2004):
Calls of active or inactive are those of the source.

Tests used:
[1] = target: T1, Neuropeptide Y receptor type 1 (Homo sapiens, UniProt P25929); format: functional;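 further: HEK293 cells with a CNG channel challenged with NPY then isoproterenol; potency as antagonist that reverses NPY suppression of cAMP signal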
T1 sequence (P25929 whole entry): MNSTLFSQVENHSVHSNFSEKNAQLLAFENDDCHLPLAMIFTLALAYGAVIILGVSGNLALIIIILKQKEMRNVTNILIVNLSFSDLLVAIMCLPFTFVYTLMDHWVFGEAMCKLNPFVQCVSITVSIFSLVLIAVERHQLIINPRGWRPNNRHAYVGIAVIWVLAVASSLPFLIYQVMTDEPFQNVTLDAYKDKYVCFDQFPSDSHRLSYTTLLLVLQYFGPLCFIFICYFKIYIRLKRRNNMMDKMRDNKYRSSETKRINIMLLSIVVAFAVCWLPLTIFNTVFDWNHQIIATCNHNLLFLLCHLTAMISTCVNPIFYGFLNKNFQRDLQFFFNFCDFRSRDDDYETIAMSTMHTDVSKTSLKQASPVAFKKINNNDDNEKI

[2] = inhibitors of intracellular T. cruzi replication, confirmation, NIH3T3 host cells, beta-gal luminescence (AID 2044); format: functional, cell-based;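 further: intracellular parasites grown in NIH/3T3 mouse fibroblasts as host cells; luminescent beta-galactosidase reporter signal from transgenic T. cruzi replicating inside host cells; inhibitors lower the luminescence signal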
[3] = target: T2, Neuropeptide Y receptor type 2 (Homo sapiens, UniProt P49146); format: functional, cell-based;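 further: HEK293 cells expressing the receptor and a CNG channel; stimulus was NPY near EC95 followed by isoproterenol to raise cAMP; antagonist potency measured as restoring cAMP signal that NPY suppresses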
T2 sequence (P49146 whole entry): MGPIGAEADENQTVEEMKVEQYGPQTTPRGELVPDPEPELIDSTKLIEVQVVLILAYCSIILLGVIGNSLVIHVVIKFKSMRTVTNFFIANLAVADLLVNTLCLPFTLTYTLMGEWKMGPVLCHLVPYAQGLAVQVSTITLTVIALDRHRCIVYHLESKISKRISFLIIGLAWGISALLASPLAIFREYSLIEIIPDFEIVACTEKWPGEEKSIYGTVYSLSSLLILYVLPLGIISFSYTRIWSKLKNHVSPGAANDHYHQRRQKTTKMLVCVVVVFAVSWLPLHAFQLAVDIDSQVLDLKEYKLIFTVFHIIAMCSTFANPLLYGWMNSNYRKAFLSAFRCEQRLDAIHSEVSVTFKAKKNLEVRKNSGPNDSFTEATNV

[4] = cytotoxicity toward NIH3T3 fibroblasts, dose response, counter-screen, cell-based, ATP luminescence, mouse fibroblasts (AID 2010); format: functional;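 further: cells exposed to compound for about 90 hours before reading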
BJ [5] = assay: cytotoxicity toward BJ-TERT fibroblasts, dose response, cell-based, RAS-independent, luminescence (AID 1933); format: functional; details: Homo sapiens
BJ [6] = assay: cells; format: functional, cell-based; details: Homo sapiens
[7] = growth suppression of PTEN-null colon cells, dose response, cell-based, HCT116 PTEN knockout (AID 1047); format: functional;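 further: HCT116 colon tumor cells with PTEN knocked out; cells exposed to compound for 60 hours before readout; potency for loss of cell viability measured by luminescence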
[8] = growth suppression of beta-catenin-knockout colon cells, dose response, cell-based, HCT116, human colon tumor (AID 1045); format: functional;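 further: HCT116 colon tumor cells with beta catenin knocked out; cells exposed to compound for 60 hours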
BJ [9] = assay: cytotoxicity toward BJ-TERT-LT-ST fibroblasts, dose response, cell-based, RAS-independent, luminescence (AID 1935); format: functional; details: Homo sapiens;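 further: BJ fibroblasts immortalized with TERT plus LT and ST oncogenes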
[10] = cytotoxicity toward DRD oncogenic fibroblasts, dose response, cell-based, non-viral oncogenic, luminescence (AID 1934); format: functional; details: Homo sapiens
BJ [11] = assay: cytotoxicity toward Ras-transformed BJeLR fibroblasts, dose response, cell-based, alamar blue fluorescence, cherrypicked samples (AID 2631); format: functional; details: Homo sapiens;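 further: confirmatory dose-response assay in RAS-dependent BJ fibroblasts engineered with TERT, LT and ST, with cytotoxicity read by fluorescence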
Aminopeptidase N = target: T3, Aminopeptidase N (Plasmodium falciparum FcB1/Columbia, UniProt O96935); assay: P. falciparum M1AAP inhibitors, biochemical, fluorogenic H-Leu-NHMec substrate, 1536-well (AID 1445); parameters: species or system Plasmodium falciparum 3D7, 3D7
T3 sequence (O96935 whole entry): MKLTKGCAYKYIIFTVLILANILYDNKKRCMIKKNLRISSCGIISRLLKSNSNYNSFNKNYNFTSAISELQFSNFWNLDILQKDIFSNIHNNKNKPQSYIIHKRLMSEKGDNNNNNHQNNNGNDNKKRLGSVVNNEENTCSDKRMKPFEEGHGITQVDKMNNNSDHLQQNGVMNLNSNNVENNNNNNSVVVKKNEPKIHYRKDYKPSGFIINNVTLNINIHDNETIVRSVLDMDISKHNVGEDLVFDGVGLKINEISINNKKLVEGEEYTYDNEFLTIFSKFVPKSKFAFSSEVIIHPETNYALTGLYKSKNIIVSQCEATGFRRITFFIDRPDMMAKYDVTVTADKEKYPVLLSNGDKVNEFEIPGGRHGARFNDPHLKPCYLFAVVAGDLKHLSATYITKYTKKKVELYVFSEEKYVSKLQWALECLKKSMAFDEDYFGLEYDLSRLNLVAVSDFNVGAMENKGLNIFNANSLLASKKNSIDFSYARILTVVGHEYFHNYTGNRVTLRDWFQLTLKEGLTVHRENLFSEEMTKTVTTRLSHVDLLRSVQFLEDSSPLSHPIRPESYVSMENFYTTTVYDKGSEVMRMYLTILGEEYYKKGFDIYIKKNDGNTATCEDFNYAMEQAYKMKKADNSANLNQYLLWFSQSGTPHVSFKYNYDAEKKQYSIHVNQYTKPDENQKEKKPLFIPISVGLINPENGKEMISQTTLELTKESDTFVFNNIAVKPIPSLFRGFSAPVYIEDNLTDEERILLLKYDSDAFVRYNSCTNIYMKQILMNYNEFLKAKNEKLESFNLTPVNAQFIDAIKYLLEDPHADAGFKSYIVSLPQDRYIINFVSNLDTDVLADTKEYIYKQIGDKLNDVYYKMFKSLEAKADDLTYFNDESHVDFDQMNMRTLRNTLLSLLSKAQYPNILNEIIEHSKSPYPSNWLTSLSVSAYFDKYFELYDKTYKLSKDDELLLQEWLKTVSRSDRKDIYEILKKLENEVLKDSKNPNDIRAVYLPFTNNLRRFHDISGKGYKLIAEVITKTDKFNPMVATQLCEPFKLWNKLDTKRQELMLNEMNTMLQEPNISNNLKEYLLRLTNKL

Bcl-2-like protein 10 = target: T4, Bcl-2-like protein 10 (Homo sapiens, UniProt Q9HD36); assay: displacers of TR3 peptide from Bcl-B, primary screen, selectivity assay for Bfl-1 inhibitor project, biochemical, fluorescence polarization, FITC-TR3 peptide (AID 748);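 further: fluorescence polarization from a fluorescein-labelled TR3 peptide binding purified Bcl-B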
T4 sequence (Q9HD36 whole entry): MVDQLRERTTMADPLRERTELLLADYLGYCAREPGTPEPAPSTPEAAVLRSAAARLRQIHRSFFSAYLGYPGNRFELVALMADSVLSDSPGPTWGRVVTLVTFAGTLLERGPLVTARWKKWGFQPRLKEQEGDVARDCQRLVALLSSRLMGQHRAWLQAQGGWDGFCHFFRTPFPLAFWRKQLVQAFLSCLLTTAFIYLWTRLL

Estrogen receptor beta = Estrogen receptor beta (Homo sapiens, UniProt Q92731); assay: ERβ–SRC-3 coactivator interaction inhibitors, confirmation, orthogonal assay, biochemical, ELISA, streptavidin-HRP readout (AID 1060)
Sequence of Estrogen receptor beta (Q92731 whole entry): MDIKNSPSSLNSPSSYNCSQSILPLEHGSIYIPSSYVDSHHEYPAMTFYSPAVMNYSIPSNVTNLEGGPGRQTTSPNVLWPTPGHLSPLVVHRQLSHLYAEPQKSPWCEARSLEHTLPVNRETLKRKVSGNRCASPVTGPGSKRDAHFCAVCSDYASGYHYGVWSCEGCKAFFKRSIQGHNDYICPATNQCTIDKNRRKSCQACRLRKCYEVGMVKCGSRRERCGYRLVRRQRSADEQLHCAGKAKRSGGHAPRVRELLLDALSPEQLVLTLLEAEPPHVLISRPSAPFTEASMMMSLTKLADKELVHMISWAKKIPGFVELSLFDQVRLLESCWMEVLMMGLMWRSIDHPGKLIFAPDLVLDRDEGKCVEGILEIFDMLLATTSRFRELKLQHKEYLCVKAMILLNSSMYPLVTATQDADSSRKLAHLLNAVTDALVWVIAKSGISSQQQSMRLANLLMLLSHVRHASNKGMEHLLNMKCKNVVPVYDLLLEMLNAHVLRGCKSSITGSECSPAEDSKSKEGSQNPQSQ

[12] = target: T5, Induced myeloid leukemia cell differentiation protein Mcl-1 (Homo sapiens, UniProt Q07820); format: functional
T5 sequence (Q07820 whole entry): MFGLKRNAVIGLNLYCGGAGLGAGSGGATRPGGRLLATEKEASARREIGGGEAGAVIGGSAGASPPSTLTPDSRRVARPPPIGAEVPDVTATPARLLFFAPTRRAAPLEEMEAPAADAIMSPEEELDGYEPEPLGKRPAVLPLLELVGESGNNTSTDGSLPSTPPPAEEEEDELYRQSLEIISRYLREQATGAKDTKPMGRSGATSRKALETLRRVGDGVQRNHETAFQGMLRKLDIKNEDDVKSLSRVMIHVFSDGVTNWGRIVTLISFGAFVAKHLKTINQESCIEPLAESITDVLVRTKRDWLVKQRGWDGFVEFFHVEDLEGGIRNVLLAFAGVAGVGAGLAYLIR

Genome polyprotein = Genome polyprotein (dengue virus type 2, UniProt P29990); assay: Dengue-2 NS5 methyltransferase inhibitors, primary screen, biochemical, confirmation dose response (AID 588689); format: functional
Sequence of Genome polyprotein (P29990 2492-3391 limits assumed): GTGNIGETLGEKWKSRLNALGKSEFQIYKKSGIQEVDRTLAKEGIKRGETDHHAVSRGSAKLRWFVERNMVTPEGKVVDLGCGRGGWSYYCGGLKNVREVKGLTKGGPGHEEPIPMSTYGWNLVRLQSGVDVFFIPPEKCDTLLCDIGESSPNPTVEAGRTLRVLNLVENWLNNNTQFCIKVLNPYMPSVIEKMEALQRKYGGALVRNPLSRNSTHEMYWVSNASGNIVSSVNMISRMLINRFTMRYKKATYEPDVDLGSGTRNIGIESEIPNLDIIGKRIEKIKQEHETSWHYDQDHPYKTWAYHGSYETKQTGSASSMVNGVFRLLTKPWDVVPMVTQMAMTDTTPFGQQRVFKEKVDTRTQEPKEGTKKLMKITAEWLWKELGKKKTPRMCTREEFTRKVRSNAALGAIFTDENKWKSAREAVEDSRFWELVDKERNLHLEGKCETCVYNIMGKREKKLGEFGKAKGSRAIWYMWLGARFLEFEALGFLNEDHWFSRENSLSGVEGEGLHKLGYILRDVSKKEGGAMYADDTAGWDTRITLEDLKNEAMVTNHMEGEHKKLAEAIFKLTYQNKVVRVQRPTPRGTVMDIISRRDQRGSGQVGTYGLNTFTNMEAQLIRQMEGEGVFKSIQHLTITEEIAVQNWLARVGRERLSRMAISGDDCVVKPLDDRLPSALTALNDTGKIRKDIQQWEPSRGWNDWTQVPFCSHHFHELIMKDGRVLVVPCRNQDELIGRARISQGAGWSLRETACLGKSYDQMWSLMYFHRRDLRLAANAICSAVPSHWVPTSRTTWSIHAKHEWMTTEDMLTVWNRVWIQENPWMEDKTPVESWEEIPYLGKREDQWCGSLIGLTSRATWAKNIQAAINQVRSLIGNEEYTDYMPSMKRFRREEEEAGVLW

Protein Tat = target: T6, Protein Tat (Human immunodeficiency virus type 1 group M subtype B (isolate HXB2)(HIV-1), UniProt P04608); format: functional;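 further: tat binding to TAR RNA read out by fluorescence polarization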
T6 sequence (P04608 whole entry): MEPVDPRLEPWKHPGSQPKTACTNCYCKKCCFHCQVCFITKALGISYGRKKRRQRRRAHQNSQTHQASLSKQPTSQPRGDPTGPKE

[13] = Luminescence Cell-Based Dose Response to Identify Activators of 5'UTR Stem-Loop Driven Prion Protein mRNA Translation in H4-C Neuroglioblastoma Cells. [Related pubchem assays: 1829 (Project Summary), 1814 (Primary HTS)]; format: functional
[14] = Luminescence Cell-Based Dose Confirmation HTS to Identify Activators of 5'UTR Stem-Loop Driven Alpha-Synuclein mRNA Translation in H4 Neuroglioblastoma Cells. [Related pubchem assays: 1829 (Project Summary), 1814 (Primary HTS)]; format: functional
H4 = assay: Luminescence Cell-Based Dose Response HTS to Identify Activators of 5'UTR Stem-Loop Driven Prion Protein mRNA Translation in H4 Neuroglioblastoma Cells. [Related pubchem assays: 1829 (Project Summary), 1814 (Primary HTS)]; format: functional; details: Homo sapiens
[15] = Luminescence Cell-Based Dose Response to Identify Activators of Luciferase Translation or Activity in H4-C Neuroglioblastoma Cells. [Related pubchem assays: 1829 (Project Summary), 1814 (Primary HTS)]; format: functional
[16] = Luminescence Cell-Based Dose Confirmation to Identify Activators of 5'UTR Stem-Loop Driven Alpha-Synuclein mRNA Translation in H4 Neuroglioblastoma Cells. [Related pubchem assays: 1829 (Project Summary), 1814 (Primary HTS)]; format: functional
[17] = target: T7, RNA-binding protein pos-1 (Caenorhabditis elegans, UniProt G5EF15); assay: inhibitors of POS-1/mex-3 RNA binding, dose response, biochemical, fluorescence polarization (AID 1964);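 further: purified POS-1 fused to maltose binding protein made in E. coli; potency of compounds blocking POS-1 binding to fluorescent RNA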
T7 sequence (G5EF15 whole entry): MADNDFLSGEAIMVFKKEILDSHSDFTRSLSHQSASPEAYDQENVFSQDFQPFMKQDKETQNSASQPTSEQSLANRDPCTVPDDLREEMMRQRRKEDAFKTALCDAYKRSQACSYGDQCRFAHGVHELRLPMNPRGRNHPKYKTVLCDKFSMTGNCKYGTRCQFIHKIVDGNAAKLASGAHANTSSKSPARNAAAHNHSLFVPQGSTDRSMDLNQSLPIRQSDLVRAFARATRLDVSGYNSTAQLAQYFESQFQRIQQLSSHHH

[18] = target: T8, Zinc finger protein mex-5 (Caenorhabditis elegans, UniProt Q9XUB2); assay: MEX-5/TCR-2 RNA interaction inhibitors, dose response, biochemical, C. elegans, fluorescence polarization (AID 1960)
T8 sequence (Q9XUB2 whole entry): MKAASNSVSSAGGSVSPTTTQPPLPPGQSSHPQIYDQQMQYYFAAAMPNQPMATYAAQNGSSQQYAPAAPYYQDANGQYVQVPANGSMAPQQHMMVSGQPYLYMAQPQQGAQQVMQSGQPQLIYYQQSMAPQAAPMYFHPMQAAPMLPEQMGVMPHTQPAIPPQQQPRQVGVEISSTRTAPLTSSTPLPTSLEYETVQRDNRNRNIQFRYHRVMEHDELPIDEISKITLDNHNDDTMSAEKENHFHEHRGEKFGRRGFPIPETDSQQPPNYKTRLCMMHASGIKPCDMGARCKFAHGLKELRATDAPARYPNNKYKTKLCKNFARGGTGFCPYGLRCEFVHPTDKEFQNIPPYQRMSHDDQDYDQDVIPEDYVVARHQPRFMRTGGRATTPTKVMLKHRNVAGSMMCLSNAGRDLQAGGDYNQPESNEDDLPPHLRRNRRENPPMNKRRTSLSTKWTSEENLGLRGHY

Large T antigen = Large T antigen (Simian virus 40, UniProt P03070); format: functional, Betapolyomavirus macacae;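 further: Confirmatory-stage PubChem screen for compounds that inhibit SV40 T antigen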
Sequence of Large T antigen (P03070 whole entry): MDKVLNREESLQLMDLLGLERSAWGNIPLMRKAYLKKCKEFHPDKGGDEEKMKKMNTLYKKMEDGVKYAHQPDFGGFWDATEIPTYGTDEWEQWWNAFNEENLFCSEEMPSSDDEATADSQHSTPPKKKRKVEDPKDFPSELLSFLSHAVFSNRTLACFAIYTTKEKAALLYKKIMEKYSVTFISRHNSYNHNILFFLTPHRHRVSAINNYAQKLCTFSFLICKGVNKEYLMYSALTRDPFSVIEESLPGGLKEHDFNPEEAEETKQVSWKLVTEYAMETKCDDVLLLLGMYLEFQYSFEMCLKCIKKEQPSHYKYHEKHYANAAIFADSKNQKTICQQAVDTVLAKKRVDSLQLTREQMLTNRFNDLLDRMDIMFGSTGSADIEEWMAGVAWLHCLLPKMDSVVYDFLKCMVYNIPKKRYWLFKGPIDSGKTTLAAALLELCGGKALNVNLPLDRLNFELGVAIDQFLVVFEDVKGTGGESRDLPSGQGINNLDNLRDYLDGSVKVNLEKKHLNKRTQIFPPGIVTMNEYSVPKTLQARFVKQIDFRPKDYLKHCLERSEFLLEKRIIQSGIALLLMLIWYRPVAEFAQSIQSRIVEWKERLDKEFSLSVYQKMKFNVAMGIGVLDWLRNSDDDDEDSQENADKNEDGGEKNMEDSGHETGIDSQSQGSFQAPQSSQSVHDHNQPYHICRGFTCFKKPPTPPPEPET

[19] = target: T5, Induced myeloid leukemia cell differentiation protein Mcl-1; assay: MCL1-BIM BH3 interaction inhibitors, dose response, biochemical, fluorescence polarization, BIM-BH3 peptide, 1536-well (AID 2217)
Bcl-2-like protein 1 = Bcl-2-like protein 1 (Homo sapiens, UniProt Q07817); assay: BCL-XL inhibitors, dose response, selectivity assay for MCL1 inhibitor project, biochemical, fluorescence polarization, 1536-well (AID 2218)
Sequence of Bcl-2-like protein 1 (Q07817 whole entry): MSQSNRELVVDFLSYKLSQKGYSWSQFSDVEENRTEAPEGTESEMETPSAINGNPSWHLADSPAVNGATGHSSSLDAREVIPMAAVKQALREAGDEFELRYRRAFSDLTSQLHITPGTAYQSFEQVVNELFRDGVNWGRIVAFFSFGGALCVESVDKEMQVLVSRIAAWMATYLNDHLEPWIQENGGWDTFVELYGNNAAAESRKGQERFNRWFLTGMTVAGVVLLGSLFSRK

[20] = target: T9, Low molecular weight phosphotyrosine protein phosphatase (Homo sapiens, UniProt P24666); format: functional; details: read-out: IC50_Mean;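 further: Dose-response confirmation assay measuring inhibition of LMPTP enzyme activity by fluorescence intensity read-out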
T9 sequence (P24666 whole entry): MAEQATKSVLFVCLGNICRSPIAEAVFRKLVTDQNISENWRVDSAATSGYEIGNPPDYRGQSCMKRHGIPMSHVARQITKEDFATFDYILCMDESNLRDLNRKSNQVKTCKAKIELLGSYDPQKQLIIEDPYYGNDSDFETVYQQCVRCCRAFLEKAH

[21] = Luminescence Cell-Based Dose Response HTS to Identify Activators of Luciferase Translation or Activity in H4 […] Cells. [Related pubchem assays: 1829 (Project Summary), 1814 (Primary HTS)]; format: functional

SMILES: CN(C)CCCSc1nc(-c2ccccc2)nc2c1CCC2
- IC50 [1]: 7.33 µM (active)
- EC50 [2]: < 0.1 µM (active)
- IC50 [3]: 18.2 µM (not active)
- EC50 [4]: > 60 µM (not active)
- EC50 (cells): 0.12 µM (active)

SMILES: O=C(/C=C/c1cccc2ccccc12)c1ccncc1
- IC50 [1]: 5.47 µM (active)
- EC50 (BJ [5]): 10.2 µM (inconclusive)
- EC50 (BJ [6]): > 150 µM (inconclusive)
- IC50 [3]: 4.95 µM (active)
- EC50 [7]: 8.54 µM (active)
- EC50 [8]: 5.26 µM (active)
- EC50 (BJ [9]): > 75 µM (inconclusive)
- EC50 [10]: 16.5 µM (active)
- EC50 (BJ [11]): > 133 µM (inactive)

SMILES: O=C(CSc1nnc(-c2ccco2)c(-c2ccco2)n1)Nc1ccccc1
- IC50 (Aminopeptidase N): 97.7 µM (active)
- IC50 (Bcl-2-like protein 10): 15.3 µM (active)
- IC50 (Estrogen receptor beta): < 0.023 µM (not active)
- IC50 [12]: 3.11 µM (active)
- IC50 (Genome polyprotein): > 100 µM (active)
- IC50 (Protein Tat): 5.16 µM (inconclusive)

SMILES: Clc1ccccc1/C=N/Nc1cc(N2CCOCC2)ncn1
- EC50 [13]: 1.05 µM (active)
- EC50 [14]: < 0.1 µM (active)
- EC50 (H4): 9.34 µM (active)
- EC50 [15]: 0.394 µM (active)
- EC50 [16]: 0.564 µM (active)

SMILES: Cc1ccc(-c2cc(-c3ccco3)c(C#N)c(=O)[nH]2)cc1
- EC50 [17]: 26.1 µM (active)
- EC50 [18]: 8.36 µM (inconclusive)
- IC50 (Large T antigen): 64.5 µM (active)
- IC50 [19]: > 12.1 µM (not active)
- IC50 (Bcl-2-like protein 1): > 109 µM (not active)
- IC50 [20]: 49.2 µM (inactive)

SMILES: Cc1ccc(-c2cc(NC(=O)c3ccccc3)on2)cc1
- EC50 [13]: 0.632 µM (active)
- EC50 [14]: < 0.1 µM (active)
- EC50 [21]: 0.137 µM (active)
- EC50 (H4): 9.75 µM (active)
- EC50 [15]: 0.334 µM (active)
- EC50 [16]: 0.463 µM (active)
